Results published in patent US6890950B2, “Lapachone delivery systems, compositions and uses related thereto” (priority 2002, dated 2005).
Where two headings read alike, the source gives them in different places.

Tests used:
[1] = test system: C57Blk/6 mice; assay: animal toxicity study (morbidity and mortality); assay type: in vivo, mouse; conditions: HPβ-CD inclusion complex vs Cremophor vehicle, from LD50
Method: C57Blk/6 female mice (3-4 week-old, 18-20 g) (Jackson Labs, Me.) were used to study the morbidity and mortality of mice treated with HPβ-CD.β-lap inclusion complex. Four mice per group were used for each dose, which varied from 20 to 100 mg/kg. […] Mice were injected (i.p.) every Monday, Wednesday and Friday for three weeks for a total of 10 injections. Control animals (4 mice/group) were injected with 5000 mg/kg of HPβ-CD alone to evaluate its toxicity. This HPβ-CD dose is approximately ten times of the HPβ-CD amount introduced at the highest dose of β-lap (100 mg/kg) via the HPβ-CD.β-lap inclusion complex. The higher dose of HPβ-CD was used to ensure the lack of toxicity of this compound. Weight and lethality were measured on a daily basis following initial drug administration. All animals were maintained in a facility accredited by the Association for Assessment and Accreditation of Laboratory Animal Care according to the “Principles of Laboratory Animal Care” of the National Institutes of Health.

[2] = test system: LNCaP; assay: TUNEL apoptosis assay; assay type: cell-based, human; conditions: for Apoptosis (%) After Drug Treatment: 10 μM, 4h
[3] = test system: human cancer cells; conditions: variety of human cancer cells; read-out: antitumor activity (IC50); cited from earlier work
[4] = test system: CC-10 tumor cell lines; assay: lethality and apoptosis of NSCLC cells; assay type: cell-based, mouse
Source text: (§1) PARP cleavage to a 60 kDa fragment and specific p53 proteolysis are diagnostic for β-lap-induced μ-calpain-mediated apoptosis.

[5] = test system: L1C2 cells; assay type: cell-based; conditions: 4 μM, 4 h
Source text: as §1

[6] = test system: Lewis lung carcinoma (LLC); assay type: cell-based; conditions: 4 μM, 4 h
Source text: as §1

[7] = test system: PC-3; assay: TUNEL apoptosis assay; assay type: cell-based, human; conditions: 10 μM, 4h, TUNEL 48h
[8] = test system: normal fresh or proliferating human PBMC; conditions: cited from earlier work
[9] = test system: C57/blk6 mice; conditions: cited from earlier work

## CC1(C)CCC2=C(O1)c1ccccc1C(=O)C2=O [β-lap, β-Lapachone]
[1]
  greater bioavailability in vivo compared to previous studies: ~3 fold
[2]; LNCaP + DC (50 μM dicoumarol), TUNEL 48h
  Apoptosis (%) After Drug Treatment: 28%
[2]; LNCaP + DVED, TUNEL 48h
  Apoptosis (%) After Drug Treatment: 24%
[2]; LNCaP, TUNEL 48h post-treatment
  Apoptosis (%) After Drug Treatment: 28%
[2]; β-lap-treated LNCaP
  less apoptosis than DU-145 or PC-3 cells: 3 fold
[3]
  IC50: 1 to 10 µM
[4]
  lethality and apoptosis: caused lethality and apoptosis
[4]; 4 μM, 4 h
  sensitivity to β-lap: extremely sensitive
[5]
  sensitivity to β-lap: extremely sensitive
[6]
  sensitivity to β-lap: extremely sensitive
[7]; PC-3 + DC (50 μM dicoumarol)
  Apoptosis (%) After Drug Treatment: 0.04%
[7]; PC-3 + DVED
  Apoptosis (%) After Drug Treatment: 91%
[7]; PC-3
  Apoptosis (%) After Drug Treatment: 82%
[8]
  cytotoxic effects: No cytotoxic effects
[9]; Cremophor as vehicle
  LD50: > 150 mg/kg
[9]; lipiodol, C57/blk6 mice
  LD50: > 150 mg/kg
